The values below come from patent US20230391825A1, “ENHANCED SKIN PERMEATION OF A NOVEL PEPTIDE VIA STRUCTURAL MODIFICATION, CHEMICAL ENHANCEMENT, AND MICRONEEDLES” (ESCAPE THERAPEUTICS, INC., priority 2020, published 2023).

Peptide text beside a SMILES is read from it.

Series [1] concerns the target T1, human tyrosinase (Homo sapiens, UniProt P14679).
T1 sequence (P14679 19-529): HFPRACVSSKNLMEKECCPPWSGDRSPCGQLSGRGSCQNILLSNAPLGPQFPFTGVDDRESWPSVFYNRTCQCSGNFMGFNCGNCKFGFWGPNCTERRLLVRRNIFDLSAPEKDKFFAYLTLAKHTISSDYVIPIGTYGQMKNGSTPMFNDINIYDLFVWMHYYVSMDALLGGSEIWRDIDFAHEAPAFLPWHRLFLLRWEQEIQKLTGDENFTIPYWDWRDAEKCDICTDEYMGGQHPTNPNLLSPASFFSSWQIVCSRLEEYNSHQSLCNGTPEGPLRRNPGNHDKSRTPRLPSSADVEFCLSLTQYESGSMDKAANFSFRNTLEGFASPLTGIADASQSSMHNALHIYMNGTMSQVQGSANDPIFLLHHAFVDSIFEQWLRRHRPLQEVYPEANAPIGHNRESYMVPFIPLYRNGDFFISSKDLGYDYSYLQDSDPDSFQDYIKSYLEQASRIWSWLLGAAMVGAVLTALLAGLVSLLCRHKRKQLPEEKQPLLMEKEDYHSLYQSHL
Particulars: cited from earlier work.

Series [2] relates to mushroom tyrosinase. The note with it: cited from earlier work.
Series [3] deals with melasma. Particulars: cited from earlier work.
Series [4] is classed as in vitro ADME. An excerpt: Human dermatomed skin was obtained from Science Care (Arizona, USA). The skin tissues were excised from the thighs of two male cadavers with age at death of 66 and 57. The skin samples used in the study were without identifier and exempted from ethical review. The Integrity of cadaver skin was checked using visual inspection before use to ensure no pores or breaks in the skin surface were present. In addition, any compromise in skin integrity was identified through observation of a rapid and large increase in the amount of permeated peptide through the skin at the first sampling time point.
Franz type diffusion cells were used. Human epidermis was mounted between donor and receptor compartments and excessive skin at the sides was trimmed off to minimize lateral diffusion. SC was faced towards the donor compartment and the skin area for permeation was 1.327 square centimeters. The receptor compartment was filled with 5.5 milliliters of 1 millimolar PBS solution containing 1 percent (volume/volume) antibacterial antimycotic solution. Receptor solution was filtered twice to prevent formation of air bubbles beneath the epidermis. […] Permeation was measured over 24 hours.
The amount of peptide permeated was determined using Shimadzu CBM-20A HPLC system with Agilent ODS C18 column (4.6 millimeters x 250 millimeters x 5 microns, 170 Angstroms). […]

With `N=C(N)NCCC[C@H](NC(=O)[C@H](CO)NC(=O)[C@H](CCCNC(=N)N)NC(=O)[C@@H](N)Cc1ccc(O)cc1)C(=O)N[C@@H](CCCCN)C(=O)N[C@@H](Cc1ccc(O)cc1)C(=O)N[C@@H](CO)C(=O)N[C@@H](CO)C(=O)N[C@@H](Cc1c[nH]c2ccccc12)C(=O)N[C@@H](Cc1ccc(O)cc1)C(=O)O` [Native peptide, decapeptide-12] (H-YRSRKYSSWY-OH), the “Competitive inhibition effect compared with hydroquinone” value in series [1] and in series [2] was “stronger competitive inhibition effect” throughout. Besides, the “Efficacy in reducing content of melanin” value in series [3] (16 weeks of twice daily treatment) is on record as “more than 50%”. Also, the “Safety compared with hydroquinone” value in series [3] (in vivo) was “safer than hydroquinone”. For the same molecule, the “Effect in treatment of melasma” value in series [3] (studies on humans, topical) is listed as “good efficacy”. Moreover, the “Effect of enhancers on skin permeation” value in series [4] was “didn't alter skin permeation”.
